The assay in a line: clinical use of intranasal oxytocin formulations to treat tinnitus (patient case reports). The format is in vivo, human. The text has this:
According to an embodiment, this disclosure provides a method for treating tinnitus. The method comprises administering intranasally to an individual a composition comprising or consisting essentially of oxytocin, wherein such administration results in treatment of tinnitus. The effectiveness of treatment of tinnitus may be monitored by quantifying tinnitus, such as by self-evaluation using clinically accepted techniques. An example is the Tinnitus Handicap Inventory (“THI”), a validated and published measurement technique. (Newman et al., Arch Otolaryngol Head Neck Surg, 1996 February 122 (2), 143-8). In an embodiment, the improvement in an individual using THI may comprise an improvement of at least 10%. In various embodiments, the improvement may comprise from 10-100%, such as at least 20, 30, 40, 50, 60, 70, 80, 90, 95, or 99%.
This example describes clinical use of the present formulations to treat tinnitus. […] A compounded formulation of oxytocin that provided a dose of 60 IU daily (30 IU twice daily) was then used. The formulation contained oxytocin, magnesium chloride, citric acid, and sodium citrate in sterile water. […] The dose was then increased to 45 IU (3 sprays of 15 IU) 4 times daily. […] A thickener was then added to the formulation keeping the oxytocin amount the same. […] Their score on the Tinnitus Handicap Inventory reduced from a pretreatment score of 96 (meaning a catastrophic level) to a current score of 14 (meaning mild or no tinnitus). The patient has remained improved over 1 year since initiating therapy. Their current dose is 22.5 IU in each nostril 4 times daily. Since their tinnitus occurs in distinct cycles, at times when tinnitus severity is loudest, they increase the dose to 5 times daily for 2 days. […] Their current handicap inventory is 8.

Setting [1] is: first patient, 22.5 IU in each nostril 4 times daily, 5 times daily for 2 days when loudest, past 3 months.
[2] abbreviates: patient with constant tinnitus, 30 IU 4 times daily, after 2 weeks.
Where [3] appears, read: second patient, 45 IU twice daily.

In the case of `CC[C@H](C)[C@@H]1NC(=O)[C@H](Cc2ccc(O)cc2)NC(=O)[C@@H](N)CSSC[C@@H](C(=O)N2CCC[C@H]2C(=O)N[C@@H](CC(C)C)C(=O)NCC(N)=O)NC(=O)[C@H](CC(N)=O)NC(=O)[C@H](CCC(N)=O)NC1=O` [oxytocin, Cys-Tyr-Ile-Gln-Asn-Cys-Pro-Leu-Gly], the “time patient has remained improved since initiating therapy” value (first patient) is recorded as “over 1 year”. Also, the current handicap inventory (first patient, 22.5 IU in each nostril 4 times daily, 5 times daily for 2 days when loudest) is recorded as 8. Under setting [1], the time without tinnitus was ≤ 10 days and the tinnitus severity entry is reported as “reduced tinnitus severity”. Moreover, for the setting “first patient, 45 IU (3 sprays of 15 IU) 4 times daily”, the relief of tinnitus result is “significant relief”. The patient-reported benefit result (first patient, 60 IU daily (30 IU twice daily), oxytocin, magnesium chloride, citric acid, sodium citrate in sterile water) is “partial benefit”. Further, where the note is “first patient, after treatment with thickener formulation, pretreatment score 96”, the “score on the Tinnitus Handicap Inventory” value is reported as 14. Also, the relief of tinnitus result (first patient, initial dose of less than 20 IU daily) is on record as “did not provide any relief”. In addition, the tinnitus free period result (first patient, thickener added to formulation, oxytocin amount the same (45 IU 4 times daily)) was “several days of tinnitus free period”. The relief of tinnitus entry (lower amounts of oxytocin (such as under 20 IU per day)) is “did not result in any significant relief”. Besides, the improvement entry (patient with constant tinnitus after neck injury, 45 IU (22.5 IU in each nostril) 4 times daily for 30 days) is given as “about 15%”. Where the note is “patient with constant tinnitus after neck injury, dose raised to 5 times daily on occasions”, the tinnitus volume result was “diminished tinnitus volume”. Under setting [2], the “time without noticing the tinnitus” value is “several hours per day without noticing the tinnitus” and the tinnitus intensity result was “tinnitus intensity has lowered”. Also, the benefit result (patient with drug-caused tinnitus, 30 IU twice daily) is recorded as “without benefit”. Also, the “decrease in tinnitus volume” value (patient with drug-caused tinnitus, 45 IU 4 times daily) is given as “approximately 30%”. Under setting [3], the benefit entry is given as “significant benefit”, the “reduction of tinnitus volume” value is 45-60%, the “time patient remains improved” value was “more than a year” and the tinnitus free days entry is given as “some days in which they are tinnitus free”.

The record behind these values is patent US20250255930A1, “METHODS OF TREATMENT OF TINNITUS USING DERIVATIVES OF OXYTOCIN” (MASKBEGONE LLC, priority 2024, published 2025).
